Laboratory results as given in patent US11466286B2, “Methods and compositions for conferring and/or enhancing herbicide tolerance using protoporphyrinogen oxidase or variant thereof” (FarmHannong Co., Ltd., priority 2016, dated 2022).

Key:
[1] = target: CyPPO10 (Thermosynechococcus elongatus BP-1 PPO, SEQ ID NO: 2) variant F360M, MBP fusion (Thermosynechococcus vestitus, UniProt Q8DLV2, F360M); experiment: biochemical
[2] = target: CyPPO10 (Thermosynechococcus elongatus BP-1 PPO, SEQ ID NO: 2) variant R89A + F360I, MBP fusion (Thermosynechococcus vestitus, UniProt Q8DLV2, F360I/R89A); experiment: biochemical
[3] = target: CyPPO10 (Thermosynechococcus elongatus BP-1 PPO, SEQ ID NO: 2) variant R89A + F360M, MBP fusion (Thermosynechococcus vestitus, UniProt Q8DLV2, F360M/R89A); experiment: biochemical; conditions: herbicide 0-5,000 nM, 50 μM substrate
[4] = target: CyPPO10 (Thermosynechococcus elongatus BP-1 PPO, SEQ ID NO: 2) variant F360I, MBP fusion (Thermosynechococcus vestitus, UniProt Q8DLV2, F360I); experiment: PPO inhibition assay; type: biochemical
[5] = target: CyPPO10 (Thermosynechococcus elongatus BP-1 PPO, SEQ ID NO: 2), wild type, MBP fusion (Thermosynechococcus vestitus, UniProt Q8DLV2); experiment: PPO inhibition assay; type: biochemical
[6] = tested on: CyPPO13 (Synechococcus sp. JA-3-3Ab PPO, SEQ ID NO: 4), wild type, MBP fusion; experiment: PPO inhibition assay; type: biochemical; conditions: herbicide 0-5,000 nM, 50 μM substrate
[7] = tested on: CyPPO13 (Synechococcus sp. JA-3-3Ab protoporphyrinogen oxidase, wild type, SEQ ID NO: 4), MBP fusion; experiment: Michaelis-Menten kinetics of purified PPO; type: biochemical; conditions: protoporphyrinogen IX oxidation, room temperature, pH 8.0
Amaranthus PPO1 = experiment: Michaelis-Menten kinetics of PPO (plant control); type: biochemical; conditions: protoporphyrinogen IX oxidation
[8] = target: T1, CyPPO10 (Thermosynechococcus elongatus BP-1 protoporphyrinogen oxidase, wild type, SEQ ID NO: 2), MBP fusion (Thermosynechococcus vestitus, UniProt Q8DLV2); experiment: Michaelis-Menten kinetics of purified PPO; type: biochemical; conditions: protoporphyrinogen IX oxidation, room temperature, pH 8.0
T1 construct: kinetics with protoporphyrinogen IX
Procedure: The enzyme activities of PPO protein and PPO protein variants were examined, and inhibition assay by PPO-inhibiting herbicides was conducted. It was confirmed that the PPO protein has low water-solubility, but in case of being expressed as a fusion protein with MBP (maltose binding protein) (MBP-PPO), the PPO protein is able to be stably expressed as water-soluble form. Therefore, the wild type and variant proteins which were expressed in the form of fusion protein with MBP were used in the present test (refer to FIG. 4).
At first, a substrate of PPO protein, Protoporphyrinogen IX was synthesized. This process was performed in the space where nitrogen gas is streamed. […]
Two hundred microliters (200 μl) of reaction mixture containing a purified PPO protein were placed in 96 well plates, and preincubated for 30 min at room temperature to reduce the oxygen concentration by the reaction of glucose oxidase-catalase. […] The reaction proceeded at room temperature for 30 min and the fluorescence of protoporphyrin IX was measured using Microplate reader (Sense, Hidex) (excitation: 405 nm; emission: 633 nm). […] To this, 2.7N HCl was added, and the absorbance at 408 nm was measured. A standard curve was generated using standard protoporphyrin IX, and the PPO activity was measured by calibration of protoporphyrin IX using the standard curve of protoporphyrin IX. […]

[9] = target: A. thaliana PPO1 (AtPPO1) (Arabidopsis thaliana, UniProt P55826); experiment: Michaelis-Menten kinetics of PPO (plant control); type: biochemical; conditions: protoporphyrinogen IX oxidation
Sequence of A. thaliana PPO1 (AtPPO1) (P55826 35-537): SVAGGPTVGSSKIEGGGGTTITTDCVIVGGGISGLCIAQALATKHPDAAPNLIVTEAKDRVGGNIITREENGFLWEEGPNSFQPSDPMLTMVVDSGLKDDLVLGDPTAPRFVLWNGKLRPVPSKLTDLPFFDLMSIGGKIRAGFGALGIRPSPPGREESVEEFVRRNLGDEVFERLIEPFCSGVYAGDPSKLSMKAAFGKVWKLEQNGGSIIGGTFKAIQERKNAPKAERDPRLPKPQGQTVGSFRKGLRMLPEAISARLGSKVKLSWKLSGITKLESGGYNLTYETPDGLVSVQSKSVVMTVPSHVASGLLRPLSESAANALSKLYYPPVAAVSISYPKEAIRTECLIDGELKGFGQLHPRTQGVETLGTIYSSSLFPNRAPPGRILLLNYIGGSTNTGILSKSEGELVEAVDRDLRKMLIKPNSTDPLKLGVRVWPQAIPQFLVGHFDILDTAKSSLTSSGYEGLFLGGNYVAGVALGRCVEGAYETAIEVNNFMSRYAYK

Sequence of CyPPO10 (Thermosynechococcus elongatus BP-1 PPO, SEQ ID NO: 2) variant F360M, MBP fusion (Q8DLV2 entry or part of it F360M): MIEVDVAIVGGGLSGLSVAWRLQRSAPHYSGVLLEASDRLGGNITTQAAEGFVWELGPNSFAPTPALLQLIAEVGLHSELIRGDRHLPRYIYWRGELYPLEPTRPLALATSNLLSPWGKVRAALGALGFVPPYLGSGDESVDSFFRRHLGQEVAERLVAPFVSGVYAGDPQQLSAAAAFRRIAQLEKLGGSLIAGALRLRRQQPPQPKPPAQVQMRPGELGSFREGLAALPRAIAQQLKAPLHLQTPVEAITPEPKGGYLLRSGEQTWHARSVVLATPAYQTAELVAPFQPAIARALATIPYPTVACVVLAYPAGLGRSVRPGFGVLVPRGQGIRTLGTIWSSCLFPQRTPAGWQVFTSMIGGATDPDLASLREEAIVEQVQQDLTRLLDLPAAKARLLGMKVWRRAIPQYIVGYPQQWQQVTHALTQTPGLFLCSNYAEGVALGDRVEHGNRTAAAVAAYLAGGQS
Sequence of CyPPO10 (Thermosynechococcus elongatus BP-1 PPO, SEQ ID NO: 2) variant R89A + F360M, MBP fusion (Q8DLV2 entry or part of it R89A/F360M): as the sequence (Q8DLV2 entry or part of it F360M) above, with R89A counted along it
Sequence of CyPPO10 (Thermosynechococcus elongatus BP-1 PPO, SEQ ID NO: 2) variant R89A + F360I, MBP fusion (Q8DLV2 entry or part of it R89A/F360I): as the sequence (Q8DLV2 entry or part of it F360M) above, with R89A, M360I counted along it
Sequence of CyPPO10 (Thermosynechococcus elongatus BP-1 PPO, SEQ ID NO: 2) variant F360I, MBP fusion (Q8DLV2 entry or part of it F360I): as the sequence (Q8DLV2 entry or part of it F360M) above, with M360I counted along it
T1 sequence (Q8DLV2 1-467): as the sequence (Q8DLV2 entry or part of it F360M) above, with M360F counted along it
Sequence of CyPPO10 (Thermosynechococcus elongatus BP-1 PPO, SEQ ID NO: 2), wild type, MBP fusion (Q8DLV2 1-467): as the sequence (Q8DLV2 entry or part of it F360M) above, with M360F counted along it

C=CCOC(=O)C(C)(C)OC(=O)c1cc(-n2c(=O)cc(C(F)(F)F)n(C)c2=O)ccc1Cl [Butafenacil]
IC50 [1]: 24 nM
IC50 [2]: 1320 nM
IC50 [3]: 674 nM
IC50 [4]: 268 nM
IC50 [5]: 8 nM
IC50 [6]: 37 nM

C=Cc1c2[nH]c(c1C)Cc1[nH]c(c(CCC(=O)O)c1C)Cc1[nH]c(c(C)c1CCC(=O)O)Cc1[nH]c(c(C)c1C=C)C2 [Protoporphyrinogen IX]
Vmax [7]: 341.4 ± 14 μM mg protein^−1 min^−1
Vmax (Amaranthus PPO1): 57 ± 7 μM mg protein^−1 min^−1
Vmax [8]: 949.1 ± 64 μM mg protein^−1 min^−1
Vmax [9]: 134.4 ± 19 μM mg protein^−1 min^−1
